Assay results published in US20200172529A1, “Chemical Compound, Pharmaceutical Composition Thereof, and Use and Application Thereof” (Beijing Hanmi Pharm. Co., Ltd., priority 2017, published 2020).

Experiments:
Type in all cases: biochemical
[1] = molecular target: T1, TYK2 kinase (Homo sapiens, UniProt P29597); assay: Inhibition assay of TYK2 kinase activity (ADP-Glo Kinase Assay)
T1 construct: purchased Life Technologies PR8440C
Procedure: Determination of inhibition of TYK2 kinase activity by the examples compounds disclosed herein
Inhibition assay of TYK2 kinase activity: the method of ADP-Glo™ Kinase Assay (Promega, V9102) was used to determine the inhibitory activity of the test compounds against TYK2 kinase.
TYK2 kinase (purchased from Life Technologies, article number: PR8440C) was diluted to the 2-fold final concentration (0.8 ng/mL) using reaction buffer (40 mM Tris-HCl, pH 7.5; 20 mM MgCl2; 0.1 mg/mL BSA; 1 mM DTT), and added to a 384-well plate at 5 μL/well. The test drugs were subjected to a 10-fold gradient dilution, from 10 μM, to obtain 6 concentrations, and added to experimental wells of the 384-well plate at 2.5 μL/well. 5 μL of water and 2.5 μL of buffer were added to negative control wells. 5 μL of TYK2 and 2.5 μL of water were added to positive control wells. After incubating for 10 minutes at room temperature, the substrate ATP and polyE4Y1 (Sigma, P0275) were added at 2.5 μL/well, mixed well, and then reacted at room temperature for 60 minutes. After the reaction was completed, the kinase activity was detected according to the instruction of the kit. First, the ADP-Glo reaction reagent was added at 10 μL/well, mixed well, and reacted at room temperature for 40 minutes. The kinase detection reagent was then added at 20 μL/well, mixed well, and then reacted at room temperature for 30 minutes. The detection was then performed and the IC50s of test drugs were calculated.

[2] = molecular target: JAK2 kinase (Homo sapiens, UniProt O60674); assay: Inhibition assay of JAK2 kinase activity (ADP-Glo Kinase Assay)
Source text: Inhibition assay of JAK2 kinase activity: the method in ADP-Glo™ Kinase Assay (Promega, V9102) was used to determine the inhibitory activity of the test compounds against JAK2 kinase.

[3] = molecular target: JAK1 kinase (Homo sapiens, UniProt P23458); assay: Inhibition assay of JAK1 kinase activity (ADP-Glo Kinase Assay)
Source text: Inhibition assay of JAK1 kinase activity: the method in ADP-Glo™ Kinase Assay (Promega, V9102) was used to determine the inhibitory activity of the test compounds against JAK1 kinase.

[4] = molecular target: T2, JAK3 kinase (Homo sapiens, UniProt P52333); assay: Inhibition assay of JAK3 kinase activity (ADP-Glo Kinase Assay)
T2 sequence (P52333 1-1124): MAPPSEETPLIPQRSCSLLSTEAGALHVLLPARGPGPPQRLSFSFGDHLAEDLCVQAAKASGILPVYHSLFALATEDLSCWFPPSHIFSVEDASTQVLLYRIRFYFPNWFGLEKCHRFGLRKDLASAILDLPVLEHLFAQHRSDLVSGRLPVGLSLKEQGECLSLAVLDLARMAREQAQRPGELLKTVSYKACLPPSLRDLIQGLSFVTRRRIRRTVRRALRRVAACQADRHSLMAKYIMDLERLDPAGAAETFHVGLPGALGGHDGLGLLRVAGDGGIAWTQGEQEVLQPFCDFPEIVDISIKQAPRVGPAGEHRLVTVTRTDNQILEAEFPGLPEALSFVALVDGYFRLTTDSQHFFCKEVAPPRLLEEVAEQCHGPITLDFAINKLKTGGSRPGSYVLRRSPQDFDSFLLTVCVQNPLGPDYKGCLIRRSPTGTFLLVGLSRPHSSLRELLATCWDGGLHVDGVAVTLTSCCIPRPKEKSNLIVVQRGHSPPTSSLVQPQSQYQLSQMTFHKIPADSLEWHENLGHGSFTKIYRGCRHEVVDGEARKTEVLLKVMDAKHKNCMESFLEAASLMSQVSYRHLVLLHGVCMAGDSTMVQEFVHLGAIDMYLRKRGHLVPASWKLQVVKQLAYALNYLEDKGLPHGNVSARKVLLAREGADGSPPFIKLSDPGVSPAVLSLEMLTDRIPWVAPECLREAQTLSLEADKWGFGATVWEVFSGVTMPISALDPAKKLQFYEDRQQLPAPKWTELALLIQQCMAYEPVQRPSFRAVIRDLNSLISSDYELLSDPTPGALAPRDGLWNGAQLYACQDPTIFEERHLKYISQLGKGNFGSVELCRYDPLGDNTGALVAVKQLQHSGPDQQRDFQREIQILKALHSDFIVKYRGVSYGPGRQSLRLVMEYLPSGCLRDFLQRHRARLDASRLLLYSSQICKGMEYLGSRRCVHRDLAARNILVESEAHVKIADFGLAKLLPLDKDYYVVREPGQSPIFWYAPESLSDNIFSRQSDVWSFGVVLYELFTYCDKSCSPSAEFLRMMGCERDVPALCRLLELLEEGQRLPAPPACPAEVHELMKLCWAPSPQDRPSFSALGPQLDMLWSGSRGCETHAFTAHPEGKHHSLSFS
Source text: Inhibition assay of JAK3 kinase activity: the method in ADP-Glo™ Kinase Assay (Promega, V9102) was used to determine the inhibitory activity of the test compounds against JAK3 kinase.

T1 sequence (P29597 whole entry): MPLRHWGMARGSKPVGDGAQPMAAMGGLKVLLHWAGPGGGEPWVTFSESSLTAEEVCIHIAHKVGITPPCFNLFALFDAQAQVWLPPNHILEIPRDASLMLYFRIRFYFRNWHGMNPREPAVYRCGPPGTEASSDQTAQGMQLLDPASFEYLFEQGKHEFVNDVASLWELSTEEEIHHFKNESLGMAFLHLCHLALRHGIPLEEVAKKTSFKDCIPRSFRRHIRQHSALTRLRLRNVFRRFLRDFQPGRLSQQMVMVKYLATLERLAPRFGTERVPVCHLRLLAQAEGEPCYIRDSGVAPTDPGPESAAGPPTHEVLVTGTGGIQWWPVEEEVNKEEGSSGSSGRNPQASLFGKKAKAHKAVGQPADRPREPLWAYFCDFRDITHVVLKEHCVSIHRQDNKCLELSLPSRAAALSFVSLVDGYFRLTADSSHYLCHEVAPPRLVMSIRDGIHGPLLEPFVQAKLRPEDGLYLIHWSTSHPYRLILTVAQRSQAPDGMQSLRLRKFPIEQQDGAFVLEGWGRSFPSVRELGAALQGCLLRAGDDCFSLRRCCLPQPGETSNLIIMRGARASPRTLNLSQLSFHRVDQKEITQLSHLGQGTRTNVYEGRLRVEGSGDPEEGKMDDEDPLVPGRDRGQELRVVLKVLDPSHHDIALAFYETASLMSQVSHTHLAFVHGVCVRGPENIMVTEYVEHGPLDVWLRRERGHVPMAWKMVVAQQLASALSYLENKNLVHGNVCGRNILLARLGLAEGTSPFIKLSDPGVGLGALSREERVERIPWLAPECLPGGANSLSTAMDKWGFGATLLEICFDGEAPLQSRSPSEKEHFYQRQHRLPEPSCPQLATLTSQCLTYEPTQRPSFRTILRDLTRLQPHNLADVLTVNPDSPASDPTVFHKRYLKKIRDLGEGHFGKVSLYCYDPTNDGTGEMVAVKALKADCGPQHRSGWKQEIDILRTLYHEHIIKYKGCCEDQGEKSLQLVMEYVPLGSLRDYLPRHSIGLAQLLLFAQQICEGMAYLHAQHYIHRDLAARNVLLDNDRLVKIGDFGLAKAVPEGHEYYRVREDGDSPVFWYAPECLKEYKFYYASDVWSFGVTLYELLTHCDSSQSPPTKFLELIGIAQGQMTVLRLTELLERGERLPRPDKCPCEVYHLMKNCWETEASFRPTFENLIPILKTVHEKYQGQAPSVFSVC
JAK1 kinase, sequence (P23458 whole entry): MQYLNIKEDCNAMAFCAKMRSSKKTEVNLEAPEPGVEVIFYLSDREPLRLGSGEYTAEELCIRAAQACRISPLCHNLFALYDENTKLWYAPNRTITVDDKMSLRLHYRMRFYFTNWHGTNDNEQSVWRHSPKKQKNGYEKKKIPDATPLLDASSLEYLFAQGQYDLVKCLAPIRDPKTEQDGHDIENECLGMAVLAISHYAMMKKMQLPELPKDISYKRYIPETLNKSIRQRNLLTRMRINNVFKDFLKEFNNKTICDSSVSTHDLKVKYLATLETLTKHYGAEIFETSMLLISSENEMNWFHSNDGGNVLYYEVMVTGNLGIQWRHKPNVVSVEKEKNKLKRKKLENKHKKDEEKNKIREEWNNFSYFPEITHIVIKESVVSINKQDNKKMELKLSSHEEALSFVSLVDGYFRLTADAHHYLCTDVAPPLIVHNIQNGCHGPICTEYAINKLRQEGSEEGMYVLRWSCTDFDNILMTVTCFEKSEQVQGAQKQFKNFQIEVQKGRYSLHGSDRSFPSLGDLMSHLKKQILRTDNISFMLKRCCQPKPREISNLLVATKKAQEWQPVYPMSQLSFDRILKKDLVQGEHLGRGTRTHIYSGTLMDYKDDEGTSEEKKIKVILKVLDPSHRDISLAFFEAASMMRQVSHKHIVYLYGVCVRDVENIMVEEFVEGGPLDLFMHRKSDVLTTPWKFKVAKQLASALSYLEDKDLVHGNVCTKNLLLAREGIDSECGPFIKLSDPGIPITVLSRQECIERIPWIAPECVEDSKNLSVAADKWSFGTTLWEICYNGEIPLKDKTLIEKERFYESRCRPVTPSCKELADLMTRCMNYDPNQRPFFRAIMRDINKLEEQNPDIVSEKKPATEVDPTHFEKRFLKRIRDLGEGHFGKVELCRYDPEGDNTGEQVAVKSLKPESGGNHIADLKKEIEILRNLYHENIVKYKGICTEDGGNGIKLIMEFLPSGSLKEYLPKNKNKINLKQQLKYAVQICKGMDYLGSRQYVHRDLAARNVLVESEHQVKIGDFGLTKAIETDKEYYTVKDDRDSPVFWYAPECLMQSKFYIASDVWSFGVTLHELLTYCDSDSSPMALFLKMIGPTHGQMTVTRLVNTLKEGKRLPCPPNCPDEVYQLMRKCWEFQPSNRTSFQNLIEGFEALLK
JAK2 kinase, sequence (O60674 whole entry): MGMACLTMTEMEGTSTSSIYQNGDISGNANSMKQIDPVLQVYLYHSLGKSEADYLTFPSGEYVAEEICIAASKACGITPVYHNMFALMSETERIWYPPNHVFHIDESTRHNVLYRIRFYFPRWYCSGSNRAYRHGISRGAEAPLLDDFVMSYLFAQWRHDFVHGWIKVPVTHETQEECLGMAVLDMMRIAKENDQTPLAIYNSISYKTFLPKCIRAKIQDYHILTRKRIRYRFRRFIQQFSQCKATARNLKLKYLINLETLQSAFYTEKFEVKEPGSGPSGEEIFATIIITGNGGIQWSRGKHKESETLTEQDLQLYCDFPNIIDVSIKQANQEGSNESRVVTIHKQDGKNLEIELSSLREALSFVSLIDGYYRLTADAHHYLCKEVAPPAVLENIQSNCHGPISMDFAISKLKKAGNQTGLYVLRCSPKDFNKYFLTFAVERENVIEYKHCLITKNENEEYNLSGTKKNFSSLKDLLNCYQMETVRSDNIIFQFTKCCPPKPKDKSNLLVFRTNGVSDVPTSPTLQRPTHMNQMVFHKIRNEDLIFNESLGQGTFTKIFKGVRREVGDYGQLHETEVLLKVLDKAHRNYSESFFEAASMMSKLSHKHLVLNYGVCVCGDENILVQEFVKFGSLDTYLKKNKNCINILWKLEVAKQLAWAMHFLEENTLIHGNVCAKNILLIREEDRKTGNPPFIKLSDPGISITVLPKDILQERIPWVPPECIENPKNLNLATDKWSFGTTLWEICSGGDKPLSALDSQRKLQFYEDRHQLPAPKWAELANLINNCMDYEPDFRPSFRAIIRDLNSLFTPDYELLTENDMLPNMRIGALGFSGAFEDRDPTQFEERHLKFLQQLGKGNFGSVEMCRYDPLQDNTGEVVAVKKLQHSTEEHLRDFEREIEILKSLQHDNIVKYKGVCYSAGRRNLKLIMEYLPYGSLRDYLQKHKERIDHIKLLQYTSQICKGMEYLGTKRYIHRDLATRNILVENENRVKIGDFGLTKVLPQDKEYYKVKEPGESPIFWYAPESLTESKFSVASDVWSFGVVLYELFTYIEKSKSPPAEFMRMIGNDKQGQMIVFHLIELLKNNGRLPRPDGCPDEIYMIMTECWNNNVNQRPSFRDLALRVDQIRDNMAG

Compound | IC50 [1] [nM] | IC50 [2] [nM] | IC50 [3] [nM] | IC50 [4] [nM]
NC(=O)c1cnc(Nc2ccc3c(c2)NCC(O)CO3)nc1NCC(F)(F)F (centres unmarked) [Example 7, 4-((2,2,2-trifluoroethyl)amino)-2-((3-hydroxy-2,3,4,5-tetrahydro-benzo[b][1,4]oxazepin-7-yl)amino)pyrimidin-5-carboxamide] | < 10 | 10 to 100 | 10 to 100 | –
NC(=O)c1cnc(Nc2ccc3c(c2)NCC(O)CO3)nc1NCc1ccccc1 (centres unmarked) [Example 9, 4-(benzylamino)-2-((3-hydroxy-2,3,4,5-tetrahydro-benzo[b][1,4]oxazepin-7-yl)amino)pyrimidin-5-carboxamide] | < 10 | 10 to 100 | < 10 | –
NC(=O)c1cnc(Nc2ccc3c(c2)NC[C@H](O)CO3)nc1NC1CC1 [Example 26, (S)-4-(cyclopropylamino)-2-((3-hydroxy-2,3,4,5-tetrahydro-benzo[b][1,4]oxazepin-7-yl)amino)pyrimidin-5-carboxamide] | < 10 | < 10 | < 10 | –
CO[C@H]1CNc2cc(Nc3ncc(C(N)=O)c(NC4CC4)n3)ccc2OC1 [Example 27, (S)-4-(cyclopropylamino)-2-((3-methoxy-2,3,45-tetrahydro-benzo[b][1,4]oxazepin-7-yl)amino)pyrimidin-5-carboxamide] | < 10 | 10 to 100 | < 10 | –
NC(=O)c1cnc(Nc2ccc3c(c2)NC[C@H](O)CO3)nc1NC1CC(O)C1 (stereo partly drawn) [Example 36, 4-((3-hydroxycyclobutyl)amino)-2-(((S)-2,3,4,5-tetrahydro-3-hydroxybenzo[b][1,4]oxazepin-7-yl)amino)pyrimidin-5-carboxamide] | < 10 | – | 10 to 100 | –
NC(=O)c1cnc(Nc2ccc3c(c2)NC[C@H](O)CO3)nc1NC1CCC(O)C1 (stereo partly drawn) [Example 37, 4-((3-hydroxycyclopentyl)amino)-2-(((S)-2,3,4,5-tetrahydro-3-hydroxybenzo[b][1,4]oxazepin-7-yl)amino)pyrimidin-5-carboxamide] | < 10 | – | < 10 | –
NC(=O)c1cnc(Nc2ccc3c(c2)NC[C@H](O)CO3)nc1NC1CCC(O)CC1 (stereo partly drawn) [Example 39, 4-((4-hydroxycyclohexyl)amino)-2(((S)-2,3,4,5-tetrahydro-3-hydroxybenzo[b][1,4]oxazepin-7-yl)amino)pyrimidin-5-carboxamide] | < 10 | – | 10 to 100 | –
CCNc1nc(Nc2ccc3c(c2)NC[C@H](O)CO3)ncc1C(N)=O [Example 40, 4-(ethylamino)-2-(((S)-2,3,4,5-tetrahydro-3-hydroxybenzo[b][1,4]oxazepin-7-yl)amino)pyrimidin-5-carboxamide] | < 10 | – | 10 to 100 | –
NC(=O)c1cnc(Nc2ccc3c(c2)NC[C@H](O)CO3)nc1NCc1ccnc2[nH]ccc12 [Example 41, 4-(((1H-pyrrolo[2,3-b]pyridin-4-yl)methyl)amino)-2-(((S)-2,3,4,5-tetrahydro-3-hydroxybenzo[b][1,4]oxazepin-7-yl)amino)pyrimidin-5-carboxamide] | < 10 | – | < 10 | –
N#CCC(=O)N1CCC(Nc2nc(Nc3ccc4c(c3)NC[C@H](O)CO4)ncc2C(N)=O)C1 (stereo partly drawn) [Example 42, 4-((1-(2-cyanoacetyl)pyrrolidin-3-yl)amino)-2-(((S)-2,3,4,5-tetrahydro-3-hydroxybenzo[b][1,4]oxazepin-7-yl)amino)pyrimidin-5-carboxamide] | < 10 | – | 10 to 100 | –
NC(=O)c1cnc(Nc2ccc3c(c2)NC[C@H](O)CO3)nc1NC12CC3CC(CC(O)(C3)C1)C2 [Example 43, 4-((1-hydroxyadamantan-3-yl)amino)-2-(((S)-2,3,4,5-tetrahydro-3-hydroxybenzo[b][1,4]oxazepin-7-yl)amino)pyrimidin-5-carboxamide] | < 10 | – | < 10 | –
NC(=O)c1cnc(Nc2ccc3c(c2)NC[C@H](O)CO3)nc1NC12CC3CC(CC(C3)C1)C2 [Example 45, 4-(adamantan-1-ylamino)-2-(((S)-2,3,4,5-tetrahydro-3-hydroxybenzo[bb][1,4]oxazepin-7-yl)amino)pyrimidin-5-carboxamide] | 10 to 100 | – | 10 to 100 | –
CNc1nc(Nc2ccc3c(c2)NC[C@H](O)CO3)ncc1C(N)=O [Example 47, 4-(methylamino)-2-(((S)-2,3,4,5-tetrahydro-3-hydroxybenzo[b][1,4]oxazepin-7-yl)amino)pyrimidin-5-carboxamide] | < 10 | – | 10 to 100 | –
NC(=O)c1cnc(Nc2ccc3c(c2)NC[C@H](O)CO3)nc1NCCCCO [Example 48, 4-((4-hydroxybutyl)amino)-2-(((S)-2,3,4,5-tetrahydro-3-hydroxybenzo[b][1,4]oxazepin-7-yl)amino)pyrimidin-5-carboxamide] | < 10 | < 10 | < 10 | –
NC(=O)c1cnc(Nc2ccc3c(c2)NC[C@H](O)CO3)nc1NC12CC3CC(C1)C(O)C(C3)C2 (stereo partly drawn) [Example 49, 4-((4-hydroxyadamantan-1-yl)amino)-2-(((S)-2,3,4,5-tetrahydro-3-hydroxybenzo[b][1,4]oxazepin-7-yl)amino)pyrimidin-5-carboxamide] | < 10 | < 10 | < 10 | –
COCCCNc1nc(Nc2ccc3c(c2)NC[C@H](O)CO3)ncc1C(N)=O [Example 52, 4-((3-methoxypropyl)amino)-2-(((S)-2,3,4,5-tetrahydro-3-hydroxybenzo[b][1,4]oxazepin-7-yl)amino)pyrimidin-5-carboxamide] | < 10 | – | 10 to 100 | –
NC(=O)c1cnc(Nc2ccc3c(c2)NC[C@H](O)CO3)nc1NC1CNC1 [Example 58, 4-(azetidin-3-ylamino)-2-(((S)-2,3,4,5-tetrahydro-3-hydroxybenzo[b][1,4]oxazepin-7-yl)amino)pyrimidin-5-carboxamide] | 10 to 100 | – | 10 to 100 | –
NC(=O)c1cnc(Nc2ccc3c(c2)NC[C@H](O)CO3)nc1NCCCN1CCOCC1 [Example 62, 4-((3-morpholinopropyl)amino)-2-(((S)-2,3,4,5-tetrahydro-3-hydroxybenzo[b][1,4]oxazepin-7-yl)amino)pyrimidin-5-carboxamide] | 10 to 100 | – | 10 to 100 | –
NC(=O)c1cnc(Nc2ccc3c(c2)NCCCO3)nc1NC1CC1 [Example 77, 4-(cyclopropylamino)-2-((2,3,4,5-tetrahydrobenzo[b][1,4]oxazepin-7-yl)amino)pyrimidin-5-carboxamide] | < 10 | – | – | 10 to 100
CCCO[C@@H]1CNc2cc(Nc3ncc(C(N)=O)c(NC4CC4)n3)ccc2OC1 [Example 84, 4-(cyclopropylamino)-2-(((R)-2,3,4,5-tetrahydro-3-propoxybenzo[b][1,4]oxazepin-7-yl)amino)pyrimidin-5-carboxamide] | 10 to 100 | 10 to 100 | 10 to 100 | –
